Measurements as given in patent US9926354B2, “Amyloid precursor protein (APP) based Ã#-secretase inhibitor peptides, and methods of use” (UNIVERSITY OF SOUTH FLORIDA, priority 2014, dated 2018).

Tests used:
[1] = system: CHO cells over-expressing human wild-type APP (CHO/APPwt); test: Aβ and sAPPα production in cultured media of CHO/APPwt cells by ELISA (24 hours); type: cell-based, Chinese hamster; details: 20 μg/mL
Procedure: Cell Culture—Chinese hamster ovary (CHO) cells engineered to express wild-type human APP (CHO/APPwt cells) or Swedish mutant human APP (CHO/APPswe cells) were kindly provided by Dr. Stefanie Hahn and Dr. Sascha Weggen (University of Heinrich Heine, Dusseldorf, Germany). As described previously (Obregon et al., 2012), these cells were cultured in Dulbecco's modified Eagle's medium (DMEM) with 10% fetal bovine serum (FBS), 1 mM sodium pyruvate, and 100 units/mL of penicillin and streptomycin.
To confirm the binding of APPsweBBP with BACE1, CHO/APPwt cells were plated in 8-well chambers (5×10^5/well), incubated with TAT-APPsweBBP-biotin or APPsweBBP-biotin at 20 μM for 30 minutes, fixed with 4% paraformaldehyde for 20 minutes, washed and permeabilized with 0.5% Triton X-100. Following application of blocking buffer, these cells were stained with mouse anti-BACE1 and rabbit anti-biotin antibodies overnight at 4° C. for immunocytochemistry analysis. […] The cultured media were collected for Aβ analysis by enzyme-linked immunosorbent assay (ELISA) and sAPPα analysis by ELISA and Western blot (WB). Cell lysates were also prepared for analysis of APP amyloidogenic processing by WB.
ELISA—Mouse brains were homogenized in ice-cold lysis buffer for 30 seconds using a Minilys tissue homogenizer (Bertin Technologies, Montigny-le-Bretonneux, France) set at high speed, allowed to stand for 15 minutes at 4° C., and centrifuged at 15,000 rpm for 30 minutes. Soluble Aβ1-40/42 species and sAPPα were directly detected in cultured cell media or brain homogenates using the Aβ1-40/42 (Invitrogen) and sAPPα ELISA kits (IBL-America, Minneapolis, Minn., USA).
To further examine the ability of the Swedish mutant APP BACE1 binding peptide/Tat fusion peptides to decrease Aβ production, CHO cells overexpressing either human wild-type APP (CHO/APPwt cells) or Swedish mutant APP (hereinafter referred to as “CHO/APPswe cells”) are treated with a variety of APP-based BACE1 inhibitor peptides, as shown in Table 1 and Table 2. Aβ production is determined using ELISA.

BACE1 = BACE1 (Homo sapiens, UniProt P56817); test: BACE1 activity assay (FRET, cell-free); type: biochemical; parameters: purchased Pan Vera Co., Madison, Wis., USA; details: peptide final concentration 20 μM, 90 minutes, room temperature
BACE1, sequence (P56817 46-501): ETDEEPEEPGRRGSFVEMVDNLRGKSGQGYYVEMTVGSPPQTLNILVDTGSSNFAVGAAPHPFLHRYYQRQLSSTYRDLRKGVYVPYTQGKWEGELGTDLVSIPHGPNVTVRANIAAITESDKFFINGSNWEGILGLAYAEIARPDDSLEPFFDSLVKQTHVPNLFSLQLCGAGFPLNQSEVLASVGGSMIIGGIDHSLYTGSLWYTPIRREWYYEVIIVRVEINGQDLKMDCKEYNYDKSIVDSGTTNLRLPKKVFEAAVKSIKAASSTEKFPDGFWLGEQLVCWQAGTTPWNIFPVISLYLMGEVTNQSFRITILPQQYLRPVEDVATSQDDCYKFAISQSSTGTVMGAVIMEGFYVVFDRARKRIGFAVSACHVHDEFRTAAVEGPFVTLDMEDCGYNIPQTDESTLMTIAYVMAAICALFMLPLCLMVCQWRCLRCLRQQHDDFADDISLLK
Procedure: BACE1 Activity Assay—The BACE1 inhibiting activity of APP-based BACE1 site binding peptides were determined using a fluorescence resonance energy transfer (FRET) assay (Pan Vera Co., Madison, Wis., USA), which employs a recombinant baculovirus-expressed BACE1 and a specific substrate (Rh-[…]-quencher) that is based on the APPswe mutation. This specific peptide substrate becomes highly fluorescent upon enzymatic cleavage. A mixture of 10 μL of BACE1 (1.0 U/mL in 50 mM Tris, pH7.5, 10% glycerol), 10 μL of FRET-substrate, and 10 μL of the various APP-based BACE1 site binding peptides (final concentration 20 μM) were incubated for 90 minutes in the dark at room temperature. Then, 10 μL of BACE1 stop buffer (2.5 M sodium acetate) was added to the mixture. Fluorescence was read using a fluorometer, with excitation at 545 nm and emission at 585 nm.
As a required enzyme for the generation of neurotoxic Aβ from APP, BACE1 is well established as an important mediator of AD β-amyloid pathology. As such, it has become an important target for new disease modifying therapeutics. However, since BACE1 also has important physiological roles, abolishment of the enzyme or its activity may lead to deleterious side effects as evidenced by numerous failed clinical trials discussed previously. […] Since previous studies have established a close relationship between α-helix structure and peptide-protein (or protein-protein) interactions (Azzarito, 2013; Rao et al., 2013), several APP based peptides were synthesized that might serve as a preferable substrate for BACE1. Importantly, these peptides were free of the Aβ-containing segment and, thus, cannot be amyloidogenic. In theory, these could be used to “hijack” the BACE1 processing of endogenous APP and lead to a decrease in cerebral Aβ. These BACE1 substrates and controls were incubated with recombinant BACE1 and percent of inhibition of the enzyme was calculated. […] These findings indicate that the α-helical TAT fusion domain may help to promote selective APPsweBBP proteolysis by BACE1, yielding substrate competition against human wild-type APP.

YGRKKRRQRRR [TAT, reference compound]
Secreted Aβ40 (ng/mg; mean ± SD) [1]: 11.32 ± 0.45 ng/mg | Secreted Aβ42 (ng/mg; mean ± SD) [1]: 1.07 ± 0.057 ng/mg | Secreted sAPPα (ng/mg; mean ± SD) [1]: 4766.34 ± 198.34 ng/mg | % of inhibition (mean ± SD) of BACE1 (BACE1): 3.32 ± 0.02%
